Results as given in US20250302972A1, “FORMULATION” (ENA Respiratory Pty Ltd, priority 2021, published 2025).
pEC50: −log10 of the molar value. Values joined by “and” are separate entries in the source; they are usually repeats but may differ in a detail not shown here. Equal values may be shown once.

Columns and labels:
Assay type in all cases: cell-based
[1] = target: T1, human TLR2 (Homo sapiens, UniProt O60603); test: HEK-Blue hTLR2 Dose Response (NF-κB SEAP reporter); details: for stimulatory (agonist) activity for hTLR2: HEK-Blue hTLR2
T1 construct: expressed in transfected cells; host or cells: HEK-Blue hTLR2
Experimental: (§1) Toll-Like Receptor (TLR) stimulation is tested by assessing NF-κB activation in the TLR expressing cell lines. HEK-Blue h/mTLR2 cells have been stably transfected with human or mouse TLR2 and CD14. The activity of the test articles are tested on human and mouse TLR2, as potential agonists. The test articles are evaluated at seven concentrations and compared to control ligands (see list below). These steps are performed in triplicate.
[…] Starting from the 5 μg/mL working stock, a series of six 1:4 serial dilutions were made by mixing 100 μL of the previous highest dilution with 300 μL sterile PBS.
(§2) The secreted embryonic alkaline phosphatase (SEAP) reporter is under the control of a promoter inducible by the transcription factor NF-κB. This reporter gene allows the monitoring of signaling through the TLR, based on the activation of NF-κB. In a 96-well plate (200 μL total volume) containing the appropriate cells (50,000-75,000 cells/well), 20 μL of the test article or the positive control ligand (HKLC) is added to the wells. The media added to the wells is designed for the detection of NF-κB induced SEAP expression. After a 16-24-hour incubation the optical density (OD) is read at 650 nm on a Molecular Devices SpectraMax 340PC absorbance detector.

[2] = target: T2, mouse TLR2 (Mus musculus, UniProt Q9QUN7); test: HEK-Blue mTLR2 Dose Response (NF-κB SEAP reporter)
T2 construct: expressed in transfected cells; host or cells: HEK-Blue mTLR2
Experimental: as §1
A 5 μg/mL working stock was then prepared for each compound from the 20 μg/mL dilution in sterile PBS. Starting from the 5 μg/mL working stock, a series of six 1:4 serial dilutions were made by mixing 100 μL of the previous highest dilution with 300 μL sterile PBS.
as §2

[3] = test system: HEK-Blue Null1 cells; test: HEK-Blue Null1 control cell line (control for human TLR2); details: TLR2-free control cells
Experimental: as §2

[4] = test system: HEK-Blue Null2 cells; test: HEK-Blue Null2 control cell line (control for mouse TLR2); details: TLR2-free control cells
Experimental: as §2

T2 sequence (Q9QUN7 25-784): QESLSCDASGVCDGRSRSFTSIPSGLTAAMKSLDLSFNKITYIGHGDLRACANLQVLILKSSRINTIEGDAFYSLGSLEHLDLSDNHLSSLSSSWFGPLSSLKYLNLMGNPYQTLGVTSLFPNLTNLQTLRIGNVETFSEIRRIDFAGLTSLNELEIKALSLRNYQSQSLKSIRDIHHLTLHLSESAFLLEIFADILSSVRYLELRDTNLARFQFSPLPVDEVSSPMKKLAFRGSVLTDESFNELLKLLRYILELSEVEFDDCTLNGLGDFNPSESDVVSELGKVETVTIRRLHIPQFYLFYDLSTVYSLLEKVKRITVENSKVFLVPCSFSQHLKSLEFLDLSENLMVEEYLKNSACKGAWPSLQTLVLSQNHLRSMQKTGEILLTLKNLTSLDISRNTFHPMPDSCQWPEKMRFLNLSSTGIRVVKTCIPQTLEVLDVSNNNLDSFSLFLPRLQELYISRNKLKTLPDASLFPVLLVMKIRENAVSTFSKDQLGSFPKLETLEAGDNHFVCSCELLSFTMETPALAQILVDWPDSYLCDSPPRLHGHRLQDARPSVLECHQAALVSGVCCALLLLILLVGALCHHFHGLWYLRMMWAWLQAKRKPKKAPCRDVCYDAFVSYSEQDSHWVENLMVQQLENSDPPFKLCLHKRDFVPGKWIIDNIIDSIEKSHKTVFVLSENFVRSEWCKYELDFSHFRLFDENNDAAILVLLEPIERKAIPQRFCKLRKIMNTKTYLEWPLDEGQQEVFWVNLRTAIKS
T2 sequence (Q9Y2C9 32-796 partner): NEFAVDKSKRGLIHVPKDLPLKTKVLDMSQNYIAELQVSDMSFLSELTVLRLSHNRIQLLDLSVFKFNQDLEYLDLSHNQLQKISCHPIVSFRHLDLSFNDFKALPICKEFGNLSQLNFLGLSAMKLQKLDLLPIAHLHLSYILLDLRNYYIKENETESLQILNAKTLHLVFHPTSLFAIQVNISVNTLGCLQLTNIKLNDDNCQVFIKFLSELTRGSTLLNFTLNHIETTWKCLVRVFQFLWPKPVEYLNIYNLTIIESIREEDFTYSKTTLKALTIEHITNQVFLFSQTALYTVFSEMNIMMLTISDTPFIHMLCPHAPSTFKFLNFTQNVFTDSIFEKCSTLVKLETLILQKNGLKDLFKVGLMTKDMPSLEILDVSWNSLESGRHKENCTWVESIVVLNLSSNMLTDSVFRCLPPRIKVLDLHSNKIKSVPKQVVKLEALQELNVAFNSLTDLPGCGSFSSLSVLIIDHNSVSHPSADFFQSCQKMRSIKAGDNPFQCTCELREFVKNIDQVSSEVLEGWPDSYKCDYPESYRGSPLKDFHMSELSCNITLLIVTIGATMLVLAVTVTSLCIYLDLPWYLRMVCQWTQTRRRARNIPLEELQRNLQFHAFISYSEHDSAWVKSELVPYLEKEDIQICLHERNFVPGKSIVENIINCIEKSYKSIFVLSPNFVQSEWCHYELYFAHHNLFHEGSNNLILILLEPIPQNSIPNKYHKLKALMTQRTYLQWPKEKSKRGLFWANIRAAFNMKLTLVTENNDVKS
T1 sequence (O60603 21-784): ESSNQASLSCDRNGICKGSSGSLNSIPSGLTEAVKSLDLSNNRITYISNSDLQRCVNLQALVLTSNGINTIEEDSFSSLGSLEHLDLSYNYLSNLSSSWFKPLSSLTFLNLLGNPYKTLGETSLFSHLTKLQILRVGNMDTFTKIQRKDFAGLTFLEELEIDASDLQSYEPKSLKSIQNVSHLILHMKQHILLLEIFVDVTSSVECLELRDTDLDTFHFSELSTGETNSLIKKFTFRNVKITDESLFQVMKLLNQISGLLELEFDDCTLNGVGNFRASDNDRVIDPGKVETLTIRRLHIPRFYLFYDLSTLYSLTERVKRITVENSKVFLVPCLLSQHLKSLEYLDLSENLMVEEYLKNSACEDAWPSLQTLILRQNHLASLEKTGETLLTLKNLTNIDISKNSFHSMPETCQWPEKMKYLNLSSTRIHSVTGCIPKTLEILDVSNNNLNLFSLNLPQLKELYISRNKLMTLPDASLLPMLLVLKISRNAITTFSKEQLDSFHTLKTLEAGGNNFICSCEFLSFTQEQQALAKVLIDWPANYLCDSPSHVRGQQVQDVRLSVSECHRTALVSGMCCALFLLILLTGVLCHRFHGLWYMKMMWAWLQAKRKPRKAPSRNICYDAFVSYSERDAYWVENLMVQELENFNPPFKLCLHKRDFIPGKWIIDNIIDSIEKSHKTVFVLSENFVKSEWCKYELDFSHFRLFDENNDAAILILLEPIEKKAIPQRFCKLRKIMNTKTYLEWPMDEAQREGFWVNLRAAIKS
T1 sequence (Q9Y2C9 32-796 partner): as the sequence (Q9Y2C9 32-796 partner) above

CCCCCCCCCCCCCC[C@H](C)C(=O)OCC[C@H](CSC[C@H](N)C(=O)N[C@@H](CO)C(=O)NCCOCCOCCOCCOCCOCCOCCOCCOCCOCCOCCOCCOCCOCCOCCOCCOCCOCCOCCOCCOCCOCCOCCOCCOCCOCCOCCOCCOCCC(=O)NCC(N)=O)OC(=O)[C@@H](C)CCCCCCCCCCCCCC [B16]
optical density (650 nm), Average ([1]; 0.12 pg/mL): 0.666 | optical density (650 nm), screenings 1-3 ([1]; 0.12 pg/mL): 0.688 and 0.591 and 0.718 | optical density (650 nm), Average ([1]; 0.49 pg/mL): 1.099 | optical density (650 nm), screenings 1-3 ([1]; 0.49 pg/mL): 1.080 and 1.097 and 1.121 | optical density (650 nm), Average ([1]; 1.95 pg/mL): 1.521 | optical density (650 nm), screenings 1-3 ([1]; 1.95 pg/mL): 1.478 and 1.513 and 1.573 | optical density (650 nm), Average ([1]; 7.81 pg/mL): 1.978 | optical density (650 nm), screenings 1-3 ([1]; 7.81 pg/mL): 1.903 and 1.897 and 2.133 | optical density (650 nm), Average ([1]; 31.25 pg/mL): 2.252 | optical density (650 nm), screenings 1-3 ([1]; 31.25 pg/mL): 2.093 and 2.297 and 2.367 | optical density (650 nm), Average ([1]; 125 pg/mL): 2.540 | optical density (650 nm), screenings 1-3 ([1]; 125 pg/mL): 2.531 and 2.544 and 2.545 | optical density (650 nm), Average ([1]; 500 pg/mL): 2.475 | optical density (650 nm), screenings 1-3 ([1]; 500 pg/mL): 2.466 and 2.488 and 2.472 | stimulatory (agonist) activity for hTLR2 [1]: possesses stimulatory activity | stimulatory (agonist) activity for mTLR2 [2]: possesses stimulatory activity | stimulatory response in HEK-Blue Null1 (human) cells [3]: not observed | stimulatory response in HEK-Blue Null2 (mouse) cells [4]: not observed

CCCCCCCCCCCCCC[C@H](C)C(=O)OC[C@H](CSC[C@H](N)C(=O)N[C@@H](CO)C(=O)NCCOCCOCCOCCOCCOCCOCCOCCOCCOCCOCCOCCOCCOCCOCCOCCOCCOCCOCCOCCOCCOCCOCCOCCOCCOCCOCCOCCOCCC(=O)NCC(N)=O)OC(=O)[C@@H](C)CCCCCCCCCCCCCC [B8]
Fold Induction (ratio of average induced value to average non-induced value) ([1]; 0.12 pg/mL): 25.4 | optical density (650 nm), Average ([1]; 0.12 pg/mL): 1.928 | optical density (650 nm), screenings 1-3 ([1]; 0.12 pg/mL): 1.936 and 1.856 and 1.992 | Fold Induction ([1]; 0.49 pg/mL): 29.5 | optical density (650 nm), Average ([1]; 0.49 pg/mL): 2.243 | optical density (650 nm), screenings 1-3 ([1]; 0.49 pg/mL): 2.345 and 2.229 and 2.154 | Fold Induction ([1]; 1.95 pg/mL): 32.4 | optical density (650 nm), Average ([1]; 1.95 pg/mL): 2.465 | optical density (650 nm), screenings 1-3 ([1]; 1.95 pg/mL): 2.469 and 2.420 and 2.507 | Fold Induction ([1]; 7.81 pg/mL): 33.8 | optical density (650 nm), Average ([1]; 7.81 pg/mL): 2.565 | optical density (650 nm), screenings 1-3 ([1]; 7.81 pg/mL): 2.326 and 2.636 and 2.734 | Fold Induction ([1]; 31.25 pg/mL): 34.9 | optical density (650 nm), Average ([1]; 31.25 pg/mL): 2.652 | optical density (650 nm), screenings 1-3 ([1]; 31.25 pg/mL): 2.563 and 2.643 and 2.751 | Fold Induction ([1]; 125 pg/mL): 36 | optical density (650 nm), Average ([1]; 125 pg/mL): 2.735 | optical density (650 nm), screenings 1-3 ([1]; 125 pg/mL): 2.746 and 2.716 and 2.743 | Fold Induction ([1]; 500 pg/mL): 35.1 | optical density (650 nm), Average ([1]; 500 pg/mL): 2.668 | optical density (650 nm), screenings 1-3 ([1]; 500 pg/mL): 2.648 and 2.664 and 2.693 | stimulatory (agonist) activity for hTLR2 [1]: possesses stimulatory activity | stimulatory (agonist) activity for mTLR2 [2]: possesses stimulatory activity | stimulatory response in HEK-Blue Null1 (human) cells [3]: not observed | stimulatory response in HEK-Blue Null2 (mouse) cells [4]: not observed

CCCCCCCCCCCCCC[C@@H](C)C(=O)OCC[C@H](CSC[C@H](N)C(=O)N[C@@H](CO)C(=O)NCCOCCOCCOCCOCCOCCOCCOCCOCCOCCOCCOCCOCCOCCOCCOCCOCCOCCOCCOCCOCCOCCOCCOCCOCCOCCOCCOCCOCCC(=O)NCC(N)=O)OC(=O)[C@H](C)CCCCCCCCCCCCCC [B14]
optical density (650 nm), Average ([1]; 0.12 pg/mL): 0.823 | optical density (650 nm), screenings 1-3 ([1]; 0.12 pg/mL): 0.826 and 0.869 and 0.774 | optical density (650 nm), Average ([1]; 0.49 pg/mL): 1.342 | optical density (650 nm), screenings 1-3 ([1]; 0.49 pg/mL): 1.256 and 1.364 and 1.406 | optical density (650 nm), Average ([1]; 1.95 pg/mL): 2.018 | optical density (650 nm), screenings 1-3 ([1]; 1.95 pg/mL): 1.994 and 2.061 and 2.000 | optical density (650 nm), Average ([1]; 7.81 pg/mL): 2.562 | optical density (650 nm), screenings 1-3 ([1]; 7.81 pg/mL): 2.569 and 2.545 and 2.571 | optical density (650 nm), Average ([1]; 31.25 pg/mL): 2.744 | optical density (650 nm), screenings 1-3 ([1]; 31.25 pg/mL): 2.820 and 2.720 and 2.691 | optical density (650 nm), Average ([1]; 125 pg/mL): 2.814 | optical density (650 nm), screenings 1-3 ([1]; 125 pg/mL): 2.928 and 2.800 and 2.713 | Fold Induction ([1]; 500 pg/mL): 33.9 | optical density (650 nm), Average ([1]; 500 pg/mL): 2.759 | optical density (650 nm), screenings 1-3 ([1]; 500 pg/mL): 2.722 and 2.765 and 2.791 | stimulatory (agonist) activity for hTLR2 [1]: possesses stimulatory activity | stimulatory (agonist) activity for mTLR2 [2]: possesses stimulatory activity | stimulatory response in HEK-Blue Null1 (human) cells [3]: not observed | stimulatory response in HEK-Blue Null2 (mouse) cells [4]: not observed

CCCCCCCCCCCCCC[C@@H](C)C(=O)OC[C@H](CSC[C@H](N)C(=O)N[C@@H](CO)C(=O)NCCOCCOCCOCCOCCOCCOCCOCCOCCOCCOCCOCCOCCOCCOCCOCCOCCOCCOCCOCCOCCOCCOCCOCCOCCOCCOCCOCCOCCC(=O)NCC(N)=O)OC(=O)[C@H](C)CCCCCCCCCCCCCC [B6]
Fold Induction (ratio of average induced value to average non-induced value) ([1]; 0.12 pg/mL): 9.4 | optical density (650 nm), Average ([1]; 0.12 pg/mL): 0.679 | optical density (650 nm), screenings 1-3 ([1]; 0.12 pg/mL): 0.591 and 0.742 and 0.704 | Fold Induction ([1]; 0.49 pg/mL): 16.1 | optical density (650 nm), Average ([1]; 0.49 pg/mL): 1.156 | optical density (650 nm), screenings 1-3 ([1]; 0.49 pg/mL): 1.230 and 1.151 and 1.088 | Fold Induction ([1]; 1.95 pg/mL): 24.8 | optical density (650 nm), Average ([1]; 1.95 pg/mL): 1.785 | optical density (650 nm), screenings 1-3 ([1]; 1.95 pg/mL): 1.755 and 1.776 and 1.824 | Fold Induction ([1]; 7.81 pg/mL): 30.4 | optical density (650 nm), Average ([1]; 7.81 pg/mL): 2.186 | optical density (650 nm), screenings 1-3 ([1]; 7.81 pg/mL): 2.154 and 2.186 and 2.219 | Fold Induction ([1]; 31.25 pg/mL): 35.1 | optical density (650 nm), Average ([1]; 31.25 pg/mL): 2.529 | optical density (650 nm), screenings 1-3 ([1]; 31.25 pg/mL): 2.512 and 2.527 and 2.547 | Fold Induction ([1]; 125 pg/mL): 34.3 | optical density (650 nm), Average ([1]; 125 pg/mL): 2.470 | optical density (650 nm), screenings 1-3 ([1]; 125 pg/mL): 2.522 and 2.466 and 2.422 | Fold Induction ([1]; 500 pg/mL): 36.6 | optical density (650 nm), Average ([1]; 500 pg/mL): 2.637 | optical density (650 nm), screenings 1-3 ([1]; 500 pg/mL): 2.649 and 2.606 and 2.656 | stimulatory (agonist) activity for hTLR2 [1]: possesses stimulatory activity | pEC50 ([1]; agonism of hTLR2, HEK-Blue hTLR2): 9.47 | stimulatory (agonist) activity for mTLR2 [2]: possesses stimulatory activity | stimulatory response in HEK-Blue Null1 (human) cells [3]: not observed | stimulatory response in HEK-Blue Null2 (mouse) cells [4]: not observed
